Laboratory results published in patent US20030199692A1, “Propanoic acid derivatives that inhibit the binding of integrins to their receptors” (priority 1999, published 2003).

What follows are compounds tested against T1, α4β1 integrin (Homo sapiens, UniProt P05556+P13612) (assay: Inhibition of adhesion of calcein AM-labeled Ramos cells to CS1 (fibronectin) peptide-conjugated ovalbumin). Settings: Table 4; Ramos cell adhesion to CS1-conjugated ovalbumin, 30 minutes at 37° C.
T1 construct: endogenous in cells; host or cells: Ramos cells
T1 sequence (P13612 34-1032): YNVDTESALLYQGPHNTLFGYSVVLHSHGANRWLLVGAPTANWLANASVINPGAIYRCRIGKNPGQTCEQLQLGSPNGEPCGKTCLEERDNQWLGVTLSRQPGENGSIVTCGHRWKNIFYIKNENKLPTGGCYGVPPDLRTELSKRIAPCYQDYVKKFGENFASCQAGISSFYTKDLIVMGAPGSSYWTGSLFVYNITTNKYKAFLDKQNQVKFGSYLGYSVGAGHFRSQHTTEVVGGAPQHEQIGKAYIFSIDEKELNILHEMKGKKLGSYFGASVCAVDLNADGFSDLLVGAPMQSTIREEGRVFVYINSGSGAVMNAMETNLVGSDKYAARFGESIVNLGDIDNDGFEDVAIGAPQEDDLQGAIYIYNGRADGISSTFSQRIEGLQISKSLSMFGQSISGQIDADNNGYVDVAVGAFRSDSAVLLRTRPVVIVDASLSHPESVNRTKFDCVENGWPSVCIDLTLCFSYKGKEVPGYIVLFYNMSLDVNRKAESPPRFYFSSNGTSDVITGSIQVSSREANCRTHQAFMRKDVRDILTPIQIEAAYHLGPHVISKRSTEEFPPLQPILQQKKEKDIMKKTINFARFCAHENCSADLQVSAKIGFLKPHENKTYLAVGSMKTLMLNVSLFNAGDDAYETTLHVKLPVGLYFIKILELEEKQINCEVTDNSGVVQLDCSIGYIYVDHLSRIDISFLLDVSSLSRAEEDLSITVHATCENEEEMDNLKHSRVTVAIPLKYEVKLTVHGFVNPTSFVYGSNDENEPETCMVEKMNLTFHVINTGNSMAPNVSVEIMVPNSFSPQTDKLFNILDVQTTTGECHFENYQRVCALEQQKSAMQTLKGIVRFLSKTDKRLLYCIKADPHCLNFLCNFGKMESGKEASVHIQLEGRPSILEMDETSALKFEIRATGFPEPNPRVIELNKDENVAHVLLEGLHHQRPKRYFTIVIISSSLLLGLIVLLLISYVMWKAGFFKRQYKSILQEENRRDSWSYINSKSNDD
T1 sequence (P05556 21-798): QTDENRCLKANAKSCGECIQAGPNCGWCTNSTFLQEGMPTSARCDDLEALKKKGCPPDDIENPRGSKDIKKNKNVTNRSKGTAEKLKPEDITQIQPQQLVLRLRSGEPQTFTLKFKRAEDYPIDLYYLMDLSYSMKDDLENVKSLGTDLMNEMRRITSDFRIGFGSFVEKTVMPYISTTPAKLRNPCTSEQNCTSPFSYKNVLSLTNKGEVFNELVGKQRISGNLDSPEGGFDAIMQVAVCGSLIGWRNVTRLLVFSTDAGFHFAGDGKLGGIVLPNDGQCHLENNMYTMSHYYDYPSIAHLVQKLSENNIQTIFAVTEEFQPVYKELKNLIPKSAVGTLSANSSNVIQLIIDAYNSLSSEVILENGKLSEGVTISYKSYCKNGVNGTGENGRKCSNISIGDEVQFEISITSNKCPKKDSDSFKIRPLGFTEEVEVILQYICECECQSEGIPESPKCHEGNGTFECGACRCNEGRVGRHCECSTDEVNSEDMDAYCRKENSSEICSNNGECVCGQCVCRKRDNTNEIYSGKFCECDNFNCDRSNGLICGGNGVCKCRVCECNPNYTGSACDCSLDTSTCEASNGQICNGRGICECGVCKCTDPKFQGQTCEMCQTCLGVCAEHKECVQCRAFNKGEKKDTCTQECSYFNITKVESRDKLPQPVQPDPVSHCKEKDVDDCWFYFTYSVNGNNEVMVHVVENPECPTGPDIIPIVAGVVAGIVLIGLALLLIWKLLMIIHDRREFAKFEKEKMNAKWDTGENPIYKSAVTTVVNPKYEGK
Type: cell-based
Procedure: The ability of compounds of the present invention to inhibit binding is determined by a procedure in which a 26-amino acid peptide containing the CS1 sequence of fibronectin with an N-terminal Cys ([…]) was coupled to maleimide activated ovalbumin. Bovine serum albumin (BSA) and CS1 conjugated ovalbumin were coated onto 96-well polystyrene plates at 0.5 mg/ml in TBS (50 mM Tris, pH 7.5; 150 mM NaCl) at 4° C. for 16 hours. The plates were washed three times with TBS and blocked with TBS containing 3% BSA at room temperature for 4 hours. Blocked plates were washed three times in binding buffer (TBS; 1 mM MgCl2; 1 mM CaCl2; 1 mM MnCl2) prior to assay. Ramos cells fluorescently labeled with calcein AM were resuspended in binding buffer (10^7 cells/ml) and diluted 1:2 with same buffer with or without compound. The cells were added immediately to the wells (2.5×10^5 cells/well) and incubated for 30 minutes at 37° C. Following three washes with binding buffer, adherent cells were lysed and quantitated using a fluorometer. IC50 is defined as the dose required to give 50% inhibition. MS in Table 3 stands for Mass Spec. nd stands for not determined in the Tables. A stands for inhibition in Table 2, and the percent inhibition indicates the inhibition of cell adhesion when compound is included in the assay at a concentration of 100 μM. The lower the IC50 value and the greater the percentage of inhibition, the more efficient the compound is at prevention of cell adhesion.

First: CCCCC(C(=O)N[C@@H](CC(=O)O)c1ccccc1)n1cc(C)cc(Cc2ccc3ccccc3c2)c1=O (stereo partly drawn) [(3S)-3-({2-[5-methyl-3-(2-naphthalenylmethyl)-2-oxo-1(2H)-pyridinyl]hexanoyl}amino)-3-phenylpropanoic acid]
Second: CCCCC(C(=O)N[C@@H](CC(=O)O)c1cccc(OC(C)C)c1)n1cc(C)cc(Cc2ccc3ccccc3c2)c1=O (stereo partly drawn) [(3S)-3-{3-[(1-methylethyl)oxy]phenyl}-3-({2-[5-methyl-3-(2-naphthalenylmethyl)-2-oxo-1(2H)-pyridinyl]hexanoyl}amino)propanoic acid]
The IC50 of the first is 1.5-fold higher: 30 nM for the first, 20 nM for the second.

Compared with `CCCCC(C(=O)N[C@@H](CC(=O)O)c1ccccc1)n1cc(C)cc(Cc2ccccc2C)c1=O` (stereo partly drawn) [(3S)-3-({2-[5-methyl-3-[(2-methylphenyl)methyl]-2-oxo-1(2H)-pyridinyl]hexanoyl}amino)-3-phenylpropanoic acid], `CCCCC(C(=O)N[C@@H](CC(=O)O)c1cccc(OC(C)C)c1)n1cc(C)cc(Cc2ccccc2C)c1=O` (stereo partly drawn) [(3S)-3-{3-[(1-methylethyl)oxy]phenyl}-3-({2-[5-methyl-3-[(2-methylphenyl)methyl]-2-oxo-1(2H)-pyridinyl]hexanoyl}amino)propanoic acid] is 5-fold lower in IC50: 25 nM for the first, 5 nM for the second.

Compared with `CCCCC(C(=O)N[C@@H](CC(=O)O)c1cccc(-c2ccccc2)c1)n1cc(C)cc(Cc2ccccc2)c1=O` (stereo partly drawn) [(3S)-3-[1,1′-biphenyl]-3-yl-3-({2-[5-methyl-2-oxo-3-(phenylmethyl)-1(2H)-pyridinyl]hexanoyl}amino)propanoic acid], `CCCCC(C(=O)N[C@@H](CC(=O)O)c1cccc(C(F)F)c1)n1cc(C)cc(Cc2ccccc2)c1=O` (stereo partly drawn) [(3S)-3-[3-(difluoromethyl)phenyl]-3-({2-[5-methyl-2-oxo-3-(phenylmethyl)-1(2H)-pyridinyl]hexanoyl}amino)propanoic acid] is 12-fold lower in IC50: 250 nM for the first, 20 nM for the second. The second is the more potent here.

Going from `CCCCC(C(=O)N[C@@H](CC(=O)O)c1cccc(N(CC)CC)c1)n1cc(C)cc(Cc2ccccc2)c1=O` (stereo partly drawn) [(3S)-3-[3-(diethylamino)phenyl]-3-({2-[5-methyl-2-oxo-3-{phenylmethyl)-1(2H)-pyridinyl]hexanoyl}amino)propanoic acid] to `CCCCC(C(=O)N[C@@H](CC(=O)O)c1cccc(OCC)c1)n1cc(C)cc(Cc2ccccc2)c1=O` (stereo partly drawn) [(3S)-3-{[2-(3-benzyl-5-methyl-2-oxopyridin-1(2H)-yl)hexanoyl]amino}-3-(3-ethoxyphenyl)propanoic acid], the IC50 rises from 10 nM to 35 nM (3.5-fold). The first is the more potent here.

Going from `CCCCC(C(=O)N[C@@H](CC(=O)O)c1ccc(C(C)C)cc1)n1cc(C)cc(Cc2ccccc2)c1=O` (stereo partly drawn) [(3S)-3-[4-(1-methylethyl)phenyl]-3-({2-[5-methyl-2-oxo-3-(phenylmethyl)-1(2H)-pyridinyl]hexanoyl}amino)propanoic acid] to `CCCCC(C(=O)N[C@@H](CC(=O)O)c1ccc(Cl)c(OC(C)C)c1)n1cc(C)cc(Cc2ccccc2)c1=O` (stereo partly drawn) [(3S)-3-{[2-(3-benzyl-5-methyl-2-oxopyridin-1(2H)-yl)hexanoyl]amino}-3-(4-chloro-3-isopropoxyphenyl)propanoic acid], the IC50 falls from 160 nM to 25 nM (6.4-fold).

Going from `Cc1cc(C(C(=O)N[C@@H](CC(=O)O)c2cccc(OC(C)C)c2)c2ccccc2)c(=O)n(Cc2ccccc2)c1` (stereo partly drawn) [(3S)-3-{3-[(1-methylethyl)oxy]phenyl}-3-({2-[5-methyl-2-oxo-1-(phenylmethyl)-1,2-dihydro-3-pyridinyl]-2-phenylacetyl}amino)propanoic acid] to `CCCCC(C(=O)N[C@@H](CC(=O)O)c1cccc(OC(C)C)c1)n1cc(C)cc(Cc2ccccc2)c1=O` (stereo partly drawn) [(3S)-3-{[2-(3-benzyl-5-methyl-2-oxopyridin-1(2H)-yl)hexanoyl]amino}-3-(3-isopropoxyphenyl)propanoic acid], the IC50 falls from 10 nM to 4 nM (2.5-fold). The second is the more potent here.

First: CCCCC(C(=O)N[C@@H](CC(=O)O)c1cccc(OC(C)C)c1)n1cc(C)cc(Cc2cccc3ccccc23)c1=O (stereo partly drawn) [(3S)-3-{3-[(1-methylethyl)oxy]phenyl}-3-({2-[5-methyl-3-(1-naphthalenylmethyl)-2-oxo-1(2H)-pyridinyl]hexanoyl}amino)propanoic acid]
Second: CCCCC(C(=O)N[C@@H](CC(=O)O)c1cccc(OCCC)c1)n1cc(C)cc(Cc2ccccc2)c1=O (stereo partly drawn) [(3S)-3-{[2-(3-benzyl-5-methyl-2-oxopyridin-1(2H)-yl)hexanoyl]amino}-3-(3-propoxyphenyl)propanoic acid]
The IC50 of the first is 6.7-fold higher: 67 nM for the first, 10 nM for the second. The second is the more potent here.

Compared with `CCCCC(C(=O)N[C@@H](CC(=O)O)c1ccc(C)c(OC(C)C)c1)n1cc(C)cc(Cc2ccccc2)c1=O` (stereo partly drawn) [(3S)-3-{4-methyl-3-[(1-methylethyl)oxy]phenyl}-3-({2-[5-methyl-2-oxo-3-(phenylmethyl)-1(2H)-pyridinyl]hexanoyl}amino)propanoic acid], `CCCCC(C(=O)N[C@@H](CC(=O)O)c1ccc(C)c(C)c1)n1cc(C)cc(Cc2ccccc2)c1=O` (stereo partly drawn) [(3S)-3-{[2-(3-benzyl-5-methyl-2-oxopyridin-1(2H)-yl)hexanoyl]amino}-3-(3,4-dimethylphenyl)propanoic acid] is 8.7-fold higher in IC50: 15 nM for the first, 130 nM for the second. The first is the more potent here.

First: CCCCC(C(=O)N[C@@H](CC(=O)O)c1ccc(OC)c(C)c1C)n1cccc(Cc2ccccc2)c1=O (stereo partly drawn) [(3S)-3-{[2-(3-benzyl-2-oxopyridin-1(2H)-yl)hexanoyl]amino}-3-(4-methoxy-2,3-dimethylphenyl)propanoic acid]
Second: CCCCC(C(=O)N[C@@H](CC(=O)O)c1ccc(OC)c(C)c1)n1cc(C)cc(Cc2ccccc2)c1=O (stereo partly drawn) [(3S)-3-{[2-(3-benzyl-5-methyl-2-oxopyridin-1(2H)-yl)hexanoyl]amino}-3-(4-methoxy-3-methylphenyl)propanoic acid]
The IC50 of the first is 33-fold higher: 300 nM for the first, 9 nM for the second. The second is the more potent here.

First: CCCCC(C(=O)N[C@@H](CC(=O)O)c1cc(C)ccc1C)n1cc(C)cc(Cc2ccccc2)c1=O (stereo partly drawn) [(3S)-3-{[2-(3-benzyl-5-methyl-2-oxopyridin-1(2H)-yl)hexanoyl]amino}-3-(2,5-dimethylphenyl)propanoic acid]
Second: CCCCC(C(=O)N[C@@H](CC(=O)O)c1cc(C)cc(C)c1)n1cc(C)cc(Cc2ccccc2)c1=O (stereo partly drawn) [(3S)-3-{[2-(3-benzyl-5-methyl-2-oxopyridin-1(2H)-yl)hexanoyl]amino}-3-(3,5-dimethylphenyl)propanoic acid]
The IC50 of the first is 5.8-fold higher: 300 nM for the first, 52 nM for the second.

Compared with `CCCCC(C(=O)N[C@@H](CC(=O)O)c1cc(F)cc(F)c1)n1cc(C)cc(Cc2ccccc2)c1=O` (stereo partly drawn) [(3S)-3-{[2-(3-benzyl-5-methyl-2-oxopyridin-1(2H)-yl)hexanoyl]amino}-3-(3,5-difluorophenyl)propanoic acid], `CCCCC(C(=O)N[C@@H](CC(=O)O)c1cc(C)c(OC)c(C)c1)n1cc(C)cc(Cc2ccccc2)c1=O` (stereo partly drawn) [(3S)-3-{[2-(3-benzyl-5-methyl-2-oxopyridin-1(2H)-yl)hexanoyl]amino}-3-(4-methoxy-3,5-dimethylphenyl)propanoic acid] is 5.6-fold higher in IC50: 25 nM for the first, 140 nM for the second.

`CCCCOc1cccc([C@H](CC(=O)O)NC(=O)C(CCCC)n2cc(C)cc(Cc3ccccc3)c2=O)c1` (stereo partly drawn) [(3S)-3-{[2-(3-benzyl-5-methyl-2-oxopyridin-1(2H)-yl)hexanoyl]amino}-3-(3-butoxyphenyl)propanoic acid] and `CCCCC(C(=O)N[C@@H](CC(=O)O)c1cccc(OC(F)(F)F)c1)n1cc(C)cc(Cc2ccccc2)c1=O` (stereo partly drawn) [(3S)-3-{[2-(3-benzyl-5-methyl-2-oxopyridin-1(2H)-yl)hexanoyl]amino}-3-[3-(trifluoromethoxy)phenyl]propanoic acid] are within 1.5-fold of each other in IC50: 45 nM for the first, 40 nM for the second.

First: CCCCC(C(=O)N[C@@H](CC(=O)O)c1ccc(OC)c(OCC)c1)n1cc(C)cc(Cc2ccccc2)c1=O (stereo partly drawn) [(3S)-3-{[2-(3-benzyl-5-methyl-2-oxopyridin-1(2H)-yl)hexanoyl]amino}-3-(3-ethoxy-4-methoxyphenyl)propanoic acid]
Second: CCCCC(C(=O)N[C@@H](CC(=O)O)c1cc(C)c(OC)cc1C)n1cc(C)cc(Cc2ccccc2)c1=O (stereo partly drawn) [(3S)-3-{[2-(3-benzyl-5-methyl-2-oxopyridin-1(2H)-yl)hexanoyl]amino}-3-(4-methoxy-2,5-dimethylphenyl)propanoic acid]
The IC50 of the first is 71-fold lower: 4 nM for the first, 283 nM for the second.

`CCCCC(C(=O)N[C@@H](CC(=O)O)c1ccc(-c2ccc(OC)cc2)cc1)n1cc(C)cc(Cc2ccccc2)c1=O` (stereo partly drawn) [(3S)-3-{[2-(3-benzyl-5-methyl-2-oxopyridin-1(2H)-yl)hexanoyl]amino}-3-(4′-methoxy-1,1′-biphenyl-4-yl)propanoic acid] and `CCCCC(C(=O)N[C@@H](CC(=O)O)c1ccc(-c2ccc(C)cc2)cc1)n1cc(C)cc(Cc2ccccc2)c1=O` (stereo partly drawn) [(3S)-3-{[2-(3-benzyl-5-methyl-2-oxopyridin-1(2H)-yl)hexanoyl]amino}-3-(4′-methyl-1,1′-biphenyl-4-yl)propanoic acid] are within 1.5-fold of each other in IC50: 300 nM for the first, 250 nM for the second.

First: CCCCC(C(=O)N[C@@H](CC(=O)O)c1ccc2cc(OC)ccc2c1)n1cc(C)cc(Cc2ccccc2)c1=O (stereo partly drawn) [(3S)-3-{[2-(3-benzyl-5-methyl-2-oxopyridin-1(2H)-yl)hexanoyl]amino}-3-(6-methoxy-2-naphthyl)propanoic acid]
Second: CCCCC(C(=O)N[C@@H](CC(=O)O)c1cccc(C(F)(F)F)c1)n1cc(C)cc(Cc2ccccc2)c1=O (stereo partly drawn) [(3S)-3-{[2-(3-benzyl-5-methyl-2-oxopyridin-1(2H)-yl)hexanoyl]amino}-3-[3-(trifluoromethyl)phenyl]propanoic acid]
The IC50 of the first is 6.2-fold lower: 40 nM for the first, 250 nM for the second. The first is the more potent here.
